Where “and” joins values, the source holds several entries; their conditions need not be identical. Equal values may be shown once. Inconclusive results and toxic doses are left out. Rule as the data show it: active = T/C of 150% or more; inactive = T/C below 125%.
System: L1210 leukemia ip in BDF1 mice, survival T/C
Test: NCI In Vivo Anticancer Drug Screen. Data for tumor model L1210 Leukemia (intraperitoneal) in B6D2F1 (BDF1) mice
Settings: endpoint: mean survival time, higher = longer survival
Method in brief: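 Transplantable tumor model; survival measured in treated vs vehicle control mice. Value = treated/control.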

[1] = dose: 100.0 mg/kg/injection, schedule: Q01DX001 (ip), vehicle: Klucel (hydroxypropylcellulose) (HPC)
[2] = dose: 100.0 mg/kg/injection, schedule: Q04DX003 (ip), vehicle: Klucel (hydroxypropylcellulose) (HPC)
[3] = dose: 200.0 mg/kg/injection, schedule: Q01DX001 (ip), vehicle: Klucel (hydroxypropylcellulose) (HPC)
[4] = dose: 200.0 mg/kg/injection, schedule: Q04DX003 (ip), vehicle: Klucel (hydroxypropylcellulose) (HPC)
[5] = dose: 400.0 mg/kg/injection, schedule: Q04DX003 (ip), vehicle: Klucel (hydroxypropylcellulose) (HPC)
[6] = dose: 100.0 mg/kg/injection, schedule: Q01DX009 (ip), vehicle: Klucel (hydroxypropylcellulose) (HPC)
[7] = dose: 200.0 mg/kg/injection, schedule: Q01DX009 (ip), vehicle: Klucel (hydroxypropylcellulose) (HPC)
[8] = dose: 400.0 mg/kg/injection, schedule: Q01DX009 (ip), vehicle: Klucel (hydroxypropylcellulose) (HPC)
[9] = dose: 100.0 mg/kg/injection, schedule: Q01DX001 (ip), vehicle: saline with Tween-80
[10] = dose: 200.0 mg/kg/injection, schedule: Q01DX001 (ip), vehicle: saline with Tween-80
[11] = dose: 400.0 mg/kg/injection, schedule: Q01DX001 (ip), vehicle: Klucel (hydroxypropylcellulose) (HPC)
[12] = dose: 100.0 mg/kg/injection, schedule: Q04DX002 (ip), vehicle: saline
[13] = dose: 200.0 mg/kg/injection, schedule: Q04DX002 (ip), vehicle: saline
[14] = dose: 400.0 mg/kg/injection, schedule: Q04DX002 (ip), vehicle: saline
[15] = dose: 100.0 mg/kg/injection, schedule: Q04DX003 (ip), vehicle: saline
[16] = dose: 200.0 mg/kg/injection, schedule: Q04DX003 (ip), vehicle: saline
[17] = dose: 400.0 mg/kg/injection, schedule: Q04DX003 (ip), vehicle: saline
[18] = dose: 100.0 mg/kg/injection, schedule: Q01DX009 (ip), vehicle: saline
[19] = dose: 100.0 mg/kg/injection, schedule: Q01DX001 (ip), vehicle: saline
[20] = dose: 200.0 mg/kg/injection, schedule: Q01DX001 (ip), vehicle: saline
[21] = dose: 400.0 mg/kg/injection, schedule: Q01DX001 (ip), vehicle: saline

Measured: T/C

CC(=O)N(C=C(C#N)C#N)c1ccccc1
inactive: [1] 104 % of control | [2] 108 % of control | [3] 106 % of control | [4] 96 % of control | [5] 116 % of control

O=C(Nc1cccc(Cl)c1)OCC(Cl)(Cl)Cl
inactive: [6] 88 % of control | [2] 98 % of control | [7] 95 % of control | [4] 104 % of control | [8] 92 % of control | [5] 100 % of control

COC1C(CO)OC(n2cnc3c(N)ncnc32)C1O (centres undefined)
inactive: dose: 50.0 mg/kg/injection, schedule: Q01DX001 (ip), vehicle: carboxymethylcellulose (CMC) 102 % of control | dose: 100.0 mg/kg/injection, schedule: Q01DX001 (ip), vehicle: carboxymethylcellulose (CMC) 110 % of control | dose: 200.0 mg/kg/injection, schedule: Q01DX001 (ip), vehicle: carboxymethylcellulose (CMC) 116 % of control | dose: 400.0 mg/kg/injection, schedule: Q01DX001 (ip), vehicle: carboxymethylcellulose (CMC) 98 % of control

CC1(ON(c2cc(Cl)cc(Cl)c2)C2(C)c3ccccc3-c3ccccc32)c2ccccc2-c2ccccc21
inactive: dose: 100.0 mg/kg/injection, schedule: Q04DX003 (ip), vehicle: saline with Tween-80 88 % of control | dose: 200.0 mg/kg/injection, schedule: Q04DX003 (ip), vehicle: saline with Tween-80 97 % of control

NC(N)=N/N=C(/CCC(=O)O)C(=O)O
inactive: dose: 15.0 mg/kg/injection, schedule: Q01DX Z (ip), vehicle: carboxymethylcellulose (CMC) 100 % of control | dose: 30.0 mg/kg/injection, schedule: Q01DX Z (ip), vehicle: carboxymethylcellulose (CMC) 107 % of control | dose: 60.0 mg/kg/injection, schedule: Q01DX Z (ip), vehicle: carboxymethylcellulose (CMC) 100 % of control and 104 % of control | dose: 60.0 mg/kg/injection, schedule: Q01DX Z (oral), vehicle: carboxymethylcellulose (CMC) 104 % of control | dose: 60.0 mg/kg/injection, schedule: Q01DX Z (oral), vehicle: saline 95 % of control | dose: 120.0 mg/kg/injection, schedule: Q01DX Z (ip), vehicle: carboxymethylcellulose (CMC) 101 % of control and 106 % of control | dose: 120.0 mg/kg/injection, schedule: Q01DX Z (oral), vehicle: carboxymethylcellulose (CMC) 98 % of control | dose: 120.0 mg/kg/injection, schedule: Q01DX Z (oral), vehicle: saline 96 % of control | dose: 240.0 mg/kg/injection, schedule: Q01DX Z (ip), vehicle: carboxymethylcellulose (CMC) 98 % of control | dose: 240.0 mg/kg/injection, schedule: Q01DX Z (oral), vehicle: carboxymethylcellulose (CMC) 107 % of control | dose: 240.0 mg/kg/injection, schedule: Q01DX Z (oral), vehicle: saline 98 % of control | dose: 480.0 mg/kg/injection, schedule: Q01DX Z (oral), vehicle: carboxymethylcellulose (CMC) 98 % of control | dose: 480.0 mg/kg/injection, schedule: Q01DX Z (oral), vehicle: saline 98 % of control | dose: 960.0 mg/kg/injection, schedule: Q01DX Z (oral), vehicle: carboxymethylcellulose (CMC) 98 % of control and 113 % of control | dose: 960.0 mg/kg/injection, schedule: Q01DX Z (oral), vehicle: saline 101 % of control

O=C1c2cc([N+](=O)[O-])ccc2CCC1C(O)(C(F)(F)F)C(F)(F)F (centres undefined)
inactive: [9] 100 % of control | [10] 102 % of control | dose: 400.0 mg/kg/injection, schedule: Q01DX001 (ip), vehicle: saline with Tween-80 100 % of control

O=C(O)CCC(=O)c1ccc(Cl)cc1
inactive: dose: 6.25 mg/kg/injection, schedule: Q01DX009 (ip), vehicle: saline with Tween-80 88 % of control | dose: 12.5 mg/kg/injection, schedule: Q01DX009 (ip), vehicle: saline with Tween-80 90 % of control | dose: 25.0 mg/kg/injection, schedule: Q01DX009 (ip), vehicle: saline with Tween-80 97 % of control

OC1(c2ccc(Cl)cc2)CCN(C2CC2c2ccccc2)CC1 (centres undefined)
inactive: [1] 98 % of control | [3] 97 % of control | [11] 98 % of control

CC(C(O)c1cc(=O)n(C)c2ccccc12)[N+](=O)[O-] (centres undefined)
inactive: dose: 100.0 mg/kg/injection, schedule: Q01DX001 (ip), vehicle: other 95 % of control | dose: 200.0 mg/kg/injection, schedule: Q01DX001 (ip), vehicle: other 110 % of control | dose: 400.0 mg/kg/injection, schedule: Q01DX001 (ip), vehicle: other 101 % of control

NC(=S)N1CCOCC1
inactive: [12] 97 % of control | [13] 101 % of control | [14] 108 % of control

CNC(=O)NCCCCCCCCCCC(=O)O
inactive: [6] 104 % of control | [7] 91 % of control | [8] 106 % of control

O=[N+]([O-])c1ccc(C2N=C(c3ccccc3)CS2(=O)=O)cc1 (centres undefined)
inactive: [15] 97 % of control | [16] 95 % of control | [17] 93 % of control

CCCCN(C=O)c1ccccc1
inactive: [6] 108 % of control | [2] 97 % of control | [7] 104 % of control | [4] 103 % of control | [8] 87 % of control | [5] 97 % of control

Oc1ccc2ccccc2c1CNc1ccccc1
inactive: dose: 100.0 mg/kg/injection, schedule: Q04DX003 (ip), vehicle: other 88 % of control | dose: 200.0 mg/kg/injection, schedule: Q04DX003 (ip), vehicle: other 94 % of control

NC(=O)c1ccc[n+](Cc2ccccc2)c1
inactive: dose: 37.5 mg/kg/injection, schedule: Q04DX003 (ip), vehicle: saline 97 % of control | dose: 75.0 mg/kg/injection, schedule: Q04DX003 (ip), vehicle: saline 94 % of control | [18] 100 % of control | dose: 150.0 mg/kg/injection, schedule: Q04DX003 (ip), vehicle: saline 95 % of control | dose: 200.0 mg/kg/injection, schedule: Q01DX009 (ip), vehicle: saline 107 % of control

COC1=CCC23C(=O)C=CC(=O)C2(C1)C(=O)c1ccccc1C3=O (centres undefined)
inactive: dose: 3.12 mg/kg/injection, schedule: Q01DX005 (ip), vehicle: saline with Tween-80 110 % of control | dose: 6.25 mg/kg/injection, schedule: Q01DX005 (ip), vehicle: saline with Tween-80 103 % of control | dose: 12.5 mg/kg/injection, schedule: Q01DX005 (ip), vehicle: saline with Tween-80 97 % of control

O=c1[nH]c2ccncc2c(=O)n1O
inactive: [6] 94 % of control | [7] 104 % of control | [8] 94 % of control

COc1ccc(N)cc1OC
inactive: [15] 110 % of control | [16] 105 % of control | [17] 100 % of control

CCOC(=O)C(CCCCC(C(=O)OCC)C(=O)OCC)C(=O)OCC
inactive: [19] 103 % of control | [20] 109 % of control | [21] 105 % of control

CCCCCCCCCCCCCCCCCC(=O)CCCCCCCCCCCCCCCCC
inactive: [1] 88 % of control | [3] 96 % of control | [11] 91 % of control

NC1CC2CCC1C2 (centres undefined)
inactive: dose: 50.0 mg/kg/injection, schedule: Q01DX001 (ip), vehicle: saline with Tween-80 98 % of control | dose: 50.0 mg/kg/injection, schedule: Q04DX002 (ip), vehicle: saline 93 % of control | [9] 98 % of control | [12] 100 % of control | [10] 103 % of control

CN(C)c1ccc(/C=N/NC(=S)Nc2cccc3cccnc23)cc1
inactive: [19] 105 % of control | [20] 102 % of control | [21] 96 % of control

O=C1/C(=C\c2ccccc2)COC/C1=C\c1ccccc1
inactive: [18] 94 % of control | dose: 400.0 mg/kg/injection, schedule: Q01DX009 (ip), vehicle: saline 87 % of control

Cc1ncn[nH]1
inactive: [12] 96 % of control | [13] 100 % of control | [14] 89 % of control
